In EP0591583B1, “Benzo (f) quinolinones as 5-alpha-reductase inhibitors” (ELI LILLY AND COMPANY, priority 1992, dated 1994):

Target: T1, 5α-reductase (Homo sapiens, UniProt P18405)
T1 construct: host or cells: Hs68 human genital skin fibroblasts
T1 sequence (P18405 1-259): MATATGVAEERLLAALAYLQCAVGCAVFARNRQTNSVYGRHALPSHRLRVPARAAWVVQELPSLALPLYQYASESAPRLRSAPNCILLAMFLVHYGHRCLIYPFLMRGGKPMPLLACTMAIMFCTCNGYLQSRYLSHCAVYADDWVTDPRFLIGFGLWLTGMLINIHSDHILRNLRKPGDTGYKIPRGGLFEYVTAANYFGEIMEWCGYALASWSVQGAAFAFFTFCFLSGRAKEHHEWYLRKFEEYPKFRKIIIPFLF
Experiment: 5α-Reductase activity in Hs68 human genital skin fibroblasts (conversion of labeled testosterone, TLC analysis)
Format: cell-based
Conditions: Hs68, test compound 0.316 µM; Hs68 cells; substrate testosterone 12 µM; incubated four hours; read-out: % Inhibition
Method: Cell Culture: 5α-Reductase activity was measured using Hs68 human genital skin fibroblasts which were originally purchased from the American Type Culture Collection (Rockville, MD). The cells were grown in Dulbecco's Modified Eagle's Medium (DMEM) plus 10% stripped fetal bovine serum which was supplemented with amphotericin B ([…]) and gentamicin ([…]) (GIBCO, Grand Island, NY). The serum was stripped of endogenous steroids by incubation with dextran-coated charcoal prior to its addition to the media. The cells were maintained at 37°C in an atmosphere of 95% air, 5% CO2 and were passaged every 7-10 days by exposure to a trypsin-EDTA solution (0.025% trypsin, 0.265 mM EDTA). Prior to the assay the Hs68 cells were harvested and plated in Falcon 6-well plates (Becton Dickinson Labware, Lincoln Park, NJ) at a density of 6 x 10^4 cells per well. The cells were allowed to grow for 4-5 days or until they reached approximately 80% confluence.
Assay Method I: The substrate was prepared by dissolving unlabeled testosterone (Sigma Chemical Co., St. Louis, MO) in absolute ethanol followed by the addition of [7-^3H (N)]-testosterone (23.3 Ci/mmole, New England Nuclear, Boston, MA). The steroid solution was taken to dryness under a stream of nitrogen and then reconstituted in media.
Assay Method II: The substrate used for this method was [^14C]-testosterone (50 mCi/mmol) (New England Nuclear, Boston, MA). An aliquot of the substrate was taken to dryness under a stream of nitrogen. After the addition of 30 µl of ethanol, the testosterone was dissolved in an appropriate volume of media.
Sample Preparation: The test compounds were brought up in absolute ethanol in order to achieve the desired concentration. Subsequent dilutions of the test compounds with media were performed by the Biomek 1000 Automated Laboratory Workstation (Beckman Instruments, Palo Alto, CA). The existing media in the sample wells was aspirated and replaced with fresh media. Test compound was then added to the wells followed by the addition of 0.5 ml of substrate. The volume of the incubation mixture was maintained at 2.0 ml. The final substrate concentration was 12 µM. The concentration of the test compounds ranged from 0.001-150 µM. An additional three wells (background) containing media and substrate but no cells were also included to account for the non-enzymatic metabolism of the substrate. The plates were returned to the incubator and incubated for four hours.
At the end of the incubation the media was collected and transferred to an extraction tube containing 5 ml of toluene-ethanol (9:1), to which has been added 20-250 µg each of unlabeled carrier steroids (estriol, estradiol, estrone, 5α-androstan-3α,17β-diol, 5α-androstan-3β,17β-diol, 4-androstene-3,17-dione, 5α-androstan-3,17-dione, testosterone, and 5α-dihydrotestosterone) (Steraloids, Inc., Wilton, NH). In the case of Assay Method I the extraction tube also contained 1,000 and 10,000 dpm of [4-^14C]-dihydrotestosterone (50-60 mCi/mmol) and [4-^14C]-testosterone (50 mCi/mmol) (New England Nuclear, Boston, MA), respectively. The [^14C]-steroids were included as recovery standards to quantify procedural losses. A small amount of NaCl was also added to the extraction tubes to prevent foaming. The samples were vortexed for approximately 30 seconds and then centrifuged for 10 minutes at 500 x g. The organic phase was collected and the samples taken to dryness, redissolved in dichloromethane-methanol (9:1) and were analyzed by thin layer chromatography using one of the methods described below.
Chromatography Method I (two-dimensional): The extracted samples were appled to silica gel 60F254, 0.25 mm thick, thin layer chromatography plates (EM Science, Cincinnati, OH). The plates were developed in the first dimension with a solvent system containing dichloromethane-ethyl acetate-methanol-acetic acid (160:38:1.5:0.5, Mallinckrodt Inc., Paris, KY).

Going from `CN1C(=O)CC[C@]2(C)c3ccc(Cl)cc3CC[C@@H]12` [Example 59, (R) (+)-trans-4-methyl-8-chloro-10b-methyl-1,2,3,4,4a,5,6,10b-octahydrobenzo[f]quinolin-3-one] to `CCN1C(=O)CC[C@@]2(C)c3ccccc3CC[C@H]12` (relative stereo) [Example 42, trans-4-ethyl-10b-methyl-1,2,3,4,4a,5,6,10b-octahydrobenzo[f]quinolin-3-one], the inhibition at 0.316 µM falls from 71.9% to 10.9%.

Going from `C[C@]12C=CC(=O)N[C@@H]1CCc1cc(Cl)ccc12` [Example 61, (R) (+)-trans-8-chloro-10b-methyl-3,4,4a,5,6,10b-hexahydrobenzo[f]quinolin-3-one] to `CN1C(=O)CC[C@@H]2c3cc(Cl)ccc3CC[C@H]21` (racemic) [Example 49, trans-dl-9-chloro-4-methyl-1,2,3,4,4a,5,6,10b-octahydrobenzo[f]guinolin-3-one], the inhibition at 0.316 µM rises from 61.5% to 65.7%.

Going from `CN1C(=O)CCC2c3ccc(C=CC(=O)NC(C)(C)C)cc3CCC21` (racemic) [Example 25, trans-dl-8-t-butylaminocarbonylethenediyl-4-methyl-1,2,3,4,4a,5,6,10b-octahydrobenzo[f]quinolin-3-one] to `COC(=O)C=Cc1ccc2c(c1)CCC1C2CCC(=O)N1C` (racemic) [Example 23, trans-dl-8-methoxycarbonylethenediyl-4-methyl-1,2,3,4,4a,5,6,10b-octahydrobenzo[f]quinolin-3-one], the inhibition at 0.316 µM rises from 35.9% to 76.5%.

Going from `O=C1CC[C@@H]2c3cc(Cl)c(Cl)cc3CC[C@H]2N1` (racemic) [Example 4, trans-dl-8,9-dichloro-1,2,3,4,4a,5,6,10b-octahydrobenzo[f]quinolin-3-one] to `CC1(C)CC2NC(=O)CCC2c2ccc(Br)cc21` (racemic) [Example 27, trans-dl-8-bromo-6,6-dimethyl-1,2,3,4,4a,5,6,10b-octahydrobenzo[f]quinolin-3-one], the inhibition at 0.316 µM falls from 82.1% to 44.7%.

Compared with `CN1C(=O)CC[C@@H]2c3ccc(I)cc3CC[C@H]21` (racemic) [Example 3, trans-dl-8-iodo-4-methyl-1,2,3,4,4a,5,6,10b-octahydrobenzo[f]-quinolin-3-one], `C=Cc1ccc2c(c1)CC[C@@H]1[C@@H]2CCC(=O)N1C` (racemic) [Example 57, trans-dl-8-vinyl-4-methyl-1,2,3,4,4a,5,6,10b-octahydrobenzo[f]quinolin-3-one] is lower in inhibition at 0.316 µM: 100% for the first, 66.6% for the second.

First: CCCCN1C(=O)CC[C@@]2(C)c3ccccc3CC[C@H]12 (relative stereo) [Example 43, trans-4-n-butyl-10b-methyl-1,2,3,4,4a,5,6,10b-octahydrobenzo[f]quinolin-3-one]
Second: CN1C(=O)CCC2c3ccc(C(C)(C)C)cc3CCC21 (racemic) [Example 31, trans-dl-8-t-butyl-4-methyl-1,2,3,4,5,6,10b-octahydrobenzo[f]quinolin-3-one]
The inhibition at 0.316 µM of the first is lower: 11.9% for the first, 82.1% for the second.

`CN1C(=O)CCC2c3ccc(C=CC(=O)O)cc3CCC21` (racemic) [Example 24, trans-dl-8-carboxyethenediyl-4-methyl-1,2,3,4,4a,5,6,10b-octahydrobenzo[f]quinolin-3-one] gave an inhibition at 0.316 µM of 4.96%.

Same assay, conditions: Hs68, test compound 1.00 µM; Hs68 cells; substrate testosterone 12 µM; incubated four hours

Going from `CN1C(=O)CC[C@@H]2c3ccc(Cl)cc3CC[C@@H]21` (racemic) [Example 7, cis-dl-8-chloro-4-methyl-1,2,3,4,4a,5,6,10b-octahydrobenzo[f]quinolin-3-one] to `CN1C(=O)CC[C@@H]2c3ccc(Br)cc3CC[C@H]21` (racemic) [Example 1A, trans-dl-8-bromo-4-methyl-1,2,3,4,4a,5,6,10b-octahydrobenzo[f]quinolin-3-one], the inhibition at 1 µM falls from 100% to 98%.

Compared with `CN1C(=O)CCC2(C)c3ccc(Cl)cc3CCC12` (racemic) [Example 34, trans-dl-8-chloro-4,10b-di-methyl-1,2,3,4,4a,5,6,10b-octahydrobenzo[f]-quinolin-3-one], `CN1C(=O)CC[C@@H]2c3ccc(Br)cc3CC[C@@H]21` (racemic) [Example 1B, cis-dl-8-bromo-4-methyl-1,2,3,4,4a,5,6,10b-octahydrobenzo[f]quinolin-3-one] is lower in inhibition at 1 µM: 94.2% for the first, 92.7% for the second.

Same assay, conditions: Hs68, test compound 1.00 µM; Hs68 cells; substrate testosterone 12 µM; incubated four hours; read-out: % Inhibition

Compared with `CN1C(=O)C=C[C@@H]2c3ccc(Cl)cc3CC[C@H]21` (racemic) [Example 52, trans-dl-8-chloro-4-methyl-3,4,4a,5,6,10b-hexahydrobenzo[f]quinolin-3-one], `CN1C(=O)CC[C@@H]2c3ccc(F)cc3CC[C@@H]21` (racemic) [Example 11, cis-dl-8-fluoro-4-methyl-1,2,3,4,4a,5,6,10b-octahydrobenzo[f]quinolin-3-one] is lower in inhibition at 1 µM: 71.8% for the first, 59.2% for the second.

Compared with `O=C1CCC2c3ccccc3CCC2N1` (racemic) [Example 21, trans-dl-1,2,3,4,4a,5,6,10b-octahydrobenzo[f]quinolin-3-one], `Cc1ccc2c(c1)CCC1NC(=O)CCC21` (racemic) [Example 20, trans-dl-8-methyl-1,2,3,4,4a,5,6,10b-octahydrobenzo[f]quinolin-3-one] is lower in inhibition at 1 µM: 100% for the first, 86.6% for the second.

First: CN1C(=O)CCC2(C)c3ccc(F)cc3CCC12 (racemic) [Example 32, trans-dl-8-fluoro-4,10b-dimethyl-1,2,3,4,4a,5,6,10b-octahydrobenzo[f]quinolin-3-one]
Second: C[C@]12CCC(=O)N[C@@H]1CCc1cc(Cl)ccc12 (racemic) [Example 38, trans-dl-8-chloro-10b-methyl-1,2,3,4,4a,5,6,10b-octahydrobenzo[f]quinolin-3-one]
The inhibition at 1 µM of the first is higher: 81.6% for the first, 34% for the second.

`Cc1ccc2c(c1)CC[C@@H]1[C@@H]2CCC(=O)N1C` (racemic) [Example 8, trans-dl-4,8-dimethyl-1,2,3,4,4a,5,6,10b-octahydrobenzo[f]quinolin-3-one] and `CN1C(=O)CC[C@@H]2c3cc(Cl)c(Cl)cc3CC[C@H]21` (racemic) [Example 5, trans-dl-8,9-dichloro-4-methyl-1,2,3,4,4a,5,6,10b-octahydrobenzo[f]quinolin-3-one] are the same in inhibition at 1 µM: 100% for the first, 100% for the second.

Same assay, conditions: Hs68, test compound 3.16 µM; Hs68 cells; substrate testosterone 12 µM; incubated four hours

Compound `CN1C(=O)CC[C@@]2(C)c3ccccc3CC[C@H]12` (stereo in doubt) [Example 45, trans-4-methyl-10b-methyl-1,2,3,4,4a,5,6,10b-octahydrobenzo[f]quinolin-3-one] has an inhibition at 3.16 µM of 72.2%.

Same assay, conditions: test compound 0.316 µM; Hs68 cells; substrate testosterone 12 µM; incubated four hours

In the case of `CC1CC2c3ccc(Cl)cc3CCC2N(C)C1=O` (racemic) [Example 26A, trans-dl-8-chloro-2-(α-methyl)-4-methyl-1,2,3,4,4a,5,6,10b-octahydrobenzo[f]quinolin-3-one], the “% Inhibition” value is reported as 82.56%.

Same assay, conditions: test compound 15.00 µM; Hs68 cells; substrate testosterone 12 µM; incubated four hours

Compound `O=C1CC[C@@H]2c3cc([N+](=O)[O-])ccc3CC[C@H]2N1` (racemic) [Example 46, trans-dl-9-nitro-1,2,3,4,4a,5,6,10b-octahydrobenzo[f]quinolin-3-one] has an inhibition at 15 µM of 69.9%.
